Where “and” joins values, the source holds several entries; their conditions need not be identical. Equal entries are not always repeated.
Biological target: T1, Neuropeptide Y receptor type 2 (Rattus norvegicus, UniProt Q9ERC0)
T1 sequence (Q9ERC0 whole entry): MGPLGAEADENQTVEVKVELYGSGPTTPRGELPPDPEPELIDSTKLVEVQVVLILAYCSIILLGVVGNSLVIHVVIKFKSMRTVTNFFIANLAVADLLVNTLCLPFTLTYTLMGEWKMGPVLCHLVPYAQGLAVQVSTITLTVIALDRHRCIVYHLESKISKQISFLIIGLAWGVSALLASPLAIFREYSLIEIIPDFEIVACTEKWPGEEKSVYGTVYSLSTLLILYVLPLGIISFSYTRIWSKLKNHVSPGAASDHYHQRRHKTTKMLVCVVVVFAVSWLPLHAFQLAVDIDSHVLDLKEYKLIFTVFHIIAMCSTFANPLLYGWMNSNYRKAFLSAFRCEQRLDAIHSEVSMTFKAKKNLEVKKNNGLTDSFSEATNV

Q: For `O=c1oc2ccccc2c(O)c1C1CC(c2ccc(-c3ccccc3)cc2)Cc2ccccc21` (stereo not drawn) [NSC_41735], which Ki is on record?
A: 1000 nM

Q: How did the Ki turn out when `NC(N)=NCCCC(NC(=O)CC1(CC(=O)N2CCN(C3c4ccccc4NC(=O)c4ccccc43)CC2)CCCC1)C(=O)NCCn1c(=O)n(-c2ccccc2)n(-c2ccccc2)c1=O` (stereo not drawn) [NSC_5311024] was run?
A: 6.5 nM

Q: For `CC(=O)N[C@@H](C)C(=O)N[C@@H](CO)C(=O)N[C@@H](CC(C)C)C(=O)N[C@@H](CCCNC(=N)N)C(=O)N[C@@H](Cc1cnc[nH]1)C(=O)N[C@@H](Cc1ccc(O)cc1)C(=O)N[C@@H](CC(C)C)C(=O)N[C@@H](CC(N)=O)C(=O)N[C@@H](CC(C)C)C(=O)N[C@H](C(=O)N[C@H](C(=O)N[C@@H](CCCNC(=N)N)C(=O)N[C@@H](CCC(N)=O)C(=O)N[C@@H](CCCNC(=N)N)C(=O)N[C@@H](Cc1ccc(O)cc1)C(N)=O)[C@@H](C)O)C(C)C` [PYY, N-alpha-Ac, 22-36], which Ki is on record?
A: 1.66 nM and 0.54 nM
